Experimental data taken from PubChem BioAssay (NCI).
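At the GI50, growth is halved. TGI: total growth inhibition.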

Key:
Experiment in all cases: inhibition of tumour cell growth, NCI panel, 384-well format
A498 renal = tested on: A498 renal
UO-31 renal = tested on: UO-31 renal
RPMI-8226 leukemia = tested on: RPMI-8226 leukemia
ACHN renal = tested on: ACHN renal
NCI-H23 lung = tested on: NCI-H23 lung
TK-10 renal = tested on: TK-10 renal
KM12 colon = tested on: KM12 colon
HCC-2998 colon = tested on: HCC-2998 colon
SW-620 colon = tested on: SW-620 colon
SR leukemia = tested on: SR leukemia
UACC-257 melanoma = tested on: UACC-257 melanoma
HCT-15 colon = tested on: HCT-15 colon
786-0 renal = tested on: 786-0 renal
A549 NSCLC = tested on: A549 NSCLC
MALME-3M melanoma = tested on: MALME-3M melanoma
SNB-75 CNS = tested on: SNB-75 CNS
MCF7 breast = tested on: MCF7 breast
OVCAR-8 ovarian = tested on: OVCAR-8 ovarian
HL-60(TB) leukemia = tested on: HL-60(TB) leukemia
RXF 393 renal = tested on: RXF 393 renal
HOP-62 NSCLC = tested on: HOP-62 NSCLC
MDA-MB-435 melanoma = tested on: MDA-MB-435 melanoma
SK-MEL-28 melanoma = tested on: SK-MEL-28 melanoma
SF-539 CNS = tested on: SF-539 CNS
OVCAR-5 ovarian = tested on: OVCAR-5 ovarian
HOP-92 NSCLC = tested on: HOP-92 NSCLC
NCI/ADR-RES ovarian = tested on: NCI/ADR-RES ovarian
PC-3 prostate = tested on: PC-3 prostate
K-562 leukemia = tested on: K-562 leukemia
EKVX NSCLC = tested on: EKVX NSCLC
LOX IMVI melanoma = tested on: LOX IMVI melanoma
M14 melanoma = tested on: M14 melanoma
SN12C renal = tested on: SN12C renal
CAKI-1 renal = tested on: CAKI-1 renal
NCI-H460 NSCLC = tested on: NCI-H460 NSCLC
SK-MEL-5 melanoma = tested on: SK-MEL-5 melanoma
HT29 colon = tested on: HT29 colon
MOLT-4 leukemia = tested on: MOLT-4 leukemia
T-47D breast = tested on: T-47D breast
MDA-MB-468 breast = tested on: MDA-MB-468 breast
OVCAR-4 ovarian = tested on: OVCAR-4 ovarian
MDA-MB-231 breast = tested on: MDA-MB-231 breast
CCRF-CEM leukemia = tested on: CCRF-CEM leukemia
HS 578T breast = tested on: HS 578T breast
DU-145 prostate = tested on: DU-145 prostate
NCI-H522 lung = tested on: NCI-H522 lung
SK-OV-3 ovarian = tested on: SK-OV-3 ovarian
UACC-62 melanoma = tested on: UACC-62 melanoma
SF-295 CNS = tested on: SF-295 CNS
SNB-19 CNS = tested on: SNB-19 CNS
OVCAR-3 ovarian = tested on: OVCAR-3 ovarian
COLO 205 colon = tested on: COLO 205 colon
SF-268 CNS = tested on: SF-268 CNS
NCI-H322M lung = tested on: NCI-H322M lung
BT-549 breast = tested on: BT-549 breast
IGROV1 ovarian = tested on: IGROV1 ovarian
NCI-H226 lung = tested on: NCI-H226 lung

CCCCCCCCCCCCCCCCCCOP(=O)([O-])OC1CC[N+](C)(C)CC1
GI50 (A498 renal): 17.2 µM
TGI (A498 renal): 92.2 µM
GI50 (UO-31 renal): 45.9 µM
TGI (UO-31 renal): > 100 µM
GI50 (RPMI-8226 leukemia): 0.32 µM
TGI (RPMI-8226 leukemia): 0.819 µM
GI50 (ACHN renal): 15.9 µM
TGI (ACHN renal): 30.6 µM
GI50 (NCI-H23 lung): > 100 µM
TGI (NCI-H23 lung): > 100 µM
GI50 (TK-10 renal): 1.48 µM
TGI (TK-10 renal): 3 µM
GI50 (KM12 colon): 0.757 µM
TGI (KM12 colon): 10.1 µM
GI50 (HCC-2998 colon): 4.59 µM
TGI (HCC-2998 colon): 26 µM
GI50 (SW-620 colon): 10 µM
TGI (SW-620 colon): > 100 µM
GI50 (SR leukemia): 0.406 µM
TGI (SR leukemia): 2 µM
GI50 (UACC-257 melanoma): > 100 µM
TGI (UACC-257 melanoma): > 100 µM
GI50 (HCT-15 colon): 3.21 µM
TGI (HCT-15 colon): 11 µM
GI50 ([…]-0 renal): 7.36 µM
TGI (786-0 renal): 31.3 µM
GI50 (A549 NSCLC): 14.4 µM
TGI (A549 NSCLC): 28 µM
GI50 (MALME-3M melanoma): > 100 µM
TGI (MALME-3M melanoma): > 100 µM
GI50 (SNB-75 CNS): 68.8 µM
TGI (SNB-75 CNS): > 100 µM
GI50 (MCF7 breast): 57.5 µM
TGI (MCF7 breast): > 100 µM
GI50 (OVCAR-8 ovarian): 39.9 µM
TGI (OVCAR-8 ovarian): > 100 µM
GI50 (HL-60(TB) leukemia): 1.45 µM
TGI (HL-60(TB) leukemia): 2.85 µM
GI50 (RXF 393 renal): 2.87 µM
TGI (RXF 393 renal): 18.1 µM
GI50 (HOP-62 NSCLC): 11.4 µM
TGI (HOP-62 NSCLC): 28.4 µM
GI50 (MDA-MB-435 melanoma): > 100 µM
TGI (MDA-MB-435 melanoma): > 100 µM
GI50 (SK-MEL-28 melanoma): > 100 µM
TGI (SK-MEL-28 melanoma): > 100 µM
GI50 (SF-539 CNS): > 100 µM
TGI (SF-539 CNS): > 100 µM
GI50 (OVCAR-5 ovarian): 6.35 µM
TGI (OVCAR-5 ovarian): 36.4 µM
GI50 (HOP-92 NSCLC): 11.6 µM
TGI (HOP-92 NSCLC): 24.6 µM
GI50 (NCI/ADR-RES ovarian): > 100 µM
TGI (NCI/ADR-RES ovarian): > 100 µM
GI50 (PC-3 prostate): 0.362 µM
TGI (PC-3 prostate): 1.4 µM
GI50 (K-562 leukemia): 61.5 µM
TGI (K-562 leukemia): > 100 µM
GI50 (EKVX NSCLC): 32.5 µM
TGI (EKVX NSCLC): > 100 µM
GI50 (LOX IMVI melanoma): 16.9 µM
TGI (LOX IMVI melanoma): 54 µM
GI50 (M14 melanoma): 21.1 µM
TGI (M14 melanoma): 62.8 µM
GI50 (SN12C renal): 25.5 µM
TGI (SN12C renal): 98 µM
GI50 (CAKI-1 renal): 10.8 µM
TGI (CAKI-1 renal): 24.5 µM
GI50 (NCI-H460 NSCLC): 1.47 µM
TGI (NCI-H460 NSCLC): 14.7 µM
GI50 (SK-MEL-5 melanoma): > 100 µM
TGI (SK-MEL-5 melanoma): > 100 µM
GI50 (HT29 colon): 2.9 µM
TGI (HT29 colon): 12.9 µM
GI50 (MOLT-4 leukemia): 7.26 µM
TGI (MOLT-4 leukemia): 19.9 µM
GI50 (T-47D breast): 29.6 µM
TGI (T-47D breast): > 100 µM
GI50 (MDA-MB-468 breast): 23.2 µM
TGI (MDA-MB-468 breast): 49 µM
GI50 (OVCAR-4 ovarian): 25.7 µM
TGI (OVCAR-4 ovarian): 76.6 µM
GI50 (MDA-MB-231 breast): 15.9 µM
TGI (MDA-MB-231 breast): 52.7 µM
GI50 (CCRF-CEM leukemia): 1.8 µM
TGI (CCRF-CEM leukemia): 4.79 µM
GI50 (HS 578T breast): 32.8 µM
TGI (HS 578T breast): > 100 µM
GI50 (DU-145 prostate): 36.4 µM
TGI (DU-145 prostate): > 100 µM
GI50 (NCI-H522 lung): 8.69 µM
TGI (NCI-H522 lung): 23.1 µM
GI50 (SK-OV-3 ovarian): > 100 µM
TGI (SK-OV-3 ovarian): > 100 µM
GI50 (UACC-62 melanoma): 23.2 µM
TGI (UACC-62 melanoma): > 100 µM
GI50 (SF-295 CNS): 11.7 µM
TGI (SF-295 CNS): 61.9 µM
GI50 (SNB-19 CNS): 21.3 µM
TGI (SNB-19 CNS): 77 µM
GI50 (OVCAR-3 ovarian): 64 µM
TGI (OVCAR-3 ovarian): > 100 µM
GI50 (COLO 205 colon): 1.29 µM
TGI (COLO 205 colon): 16 µM
GI50 (SF-268 CNS): 22.2 µM
TGI (SF-268 CNS): 85.7 µM
GI50 (NCI-H322M lung): 60.9 µM
TGI (NCI-H322M lung): > 100 µM
GI50 (BT-549 breast): 11.5 µM
TGI (BT-549 breast): 24.3 µM
GI50 (IGROV1 ovarian): 1.67 µM
TGI (IGROV1 ovarian): 3.99 µM
GI50 (NCI-H226 lung): 50 µM
TGI (NCI-H226 lung): > 100 µM
